In ChEMBL document CHEMBL3044766, “Synthesis, antitubercular and antifungal activities of heteroaryl-substituted oxiranes derived from BaylisHillman adducts” (2012):
The source made the active and inactive calls. The calls are words filed in the database; no cut-off is given here.

What was measured:
[1] = tested on: Mycobacterium tuberculosis; experiment: Growth inhibition of Mycobacterium tuberculosis H37Rv at 10 ug/ml after 4 weeks by Lowenstein-Jensen method; type: functional, organism-based
[2] = tested on: Mycobacterium tuberculosis; experiment: Growth inhibition of Mycobacterium tuberculosis H37Rv at 100 ug/ml after 4 weeks by Lowenstein-Jensen method; type: functional, organism-based
[3] = tested on: Mycobacterium tuberculosis; experiment: Growth inhibition of Mycobacterium tuberculosis H37Rv at 1 ug/ml after 4 weeks by Lowenstein-Jensen method; type: functional, organism-based
Aspergillus fumigatus = experiment: Antifungal activity against Aspergillus fumigatus at 100 ug/ml after 24 hr by disc diffusion method; type: functional; details: read-out: DIZ
Candida albicans = experiment: Antifungal activity against Candida albicans at 100 ug/ml after 24 hr by disk diffusion method; type: functional; details: read-out: DIZ

SMILES	growth inhibition (GI) [1]	growth inhibition (GI) [2]	growth inhibition (GI) [3]	zone of inhibition at 100 µg/mL (Aspergillus fumigatus) [mm]	zone of inhibition at 100 µg/mL (Candida albicans) [mm]
NC(=O)c1cnccn1	Active	Active	Active		
CCOC(=O)C1(C(O)c2cccs2)CO1 (stereo not given)	Active	Active	Active	10	9
Clc1ccccc1C(c1ccccc1)(c1ccccc1)n1ccnc1 [CLOTRIMAZOLE]				21	20
CCOC(=O)C1(C(O)c2ccco2)CO1 (stereo not given)	Active	Active	Active	9	8
COC(=O)C1(C(O)c2ccco2)CO1 (stereo not given)	Active	Active	Active	8	7
COC(=O)C1(C(O)c2ccc[nH]2)CO1 (stereo not given)	Active	Active	Active	12	9
COC(=O)C1(C(O)c2cccs2)CO1 (stereo not given)	Active	Active	Active	12	12
CCOC(=O)C1(C(O)c2ccc[nH]2)CO1 (stereo not given)	Active	Active	Active	10	10
